Patent publication US20190336496A1, “SELECTIVE BCL-2 INHIBITORS IN COMBINATION WITH AN ANTI-PD-1 OR AN ANTI-PD-L1 ANTIBODY FOR THE TREATMENT OF CANCERS” (AbbVie Inc., priority 2018, published 2019)

Key:
[1] = system: CD4 T-cells co-cultured with MoDCs; test: Mixed lymphocyte reaction (MLR) assay; format: cell-based, human; conditions: for CD3+ T cell numbers / production of IFNγ (secreted) / proportion of CD3+ T-cells that produce IFNγ: MLR, BCL-2 inhibitors at 1 μM
Description: Mixed Lymphocyte Reaction (MLR) assay was used to examine venetoclax effect on T-cell function in response to immune stimulation. Monocytic-derived dendritic cells (MoDCs) were generated from fresh human blood. PBMCs were isolated using a Ficoll gradient. The PBMCs were allowed to adhere for 2 hours. After 2 hours, cells in suspension were removed. Fresh AIM V™ medium (ThermoFisher cat. #12055091) supplemented with granulocyte-macrophage colony-stimulating factor (GM-CSF, 80 ng/mL) and IL-4 (50 ng/mL) was added to the culture. After 5 days, the MoDCs were stimulated with IL-1α and TNF-α (0.2 ng/mL each) for 48 hours to increase major histocompatibility complex class II molecules (MHCII) expression. These activated MoDCs were then co-cultured with CD4 T-cells (Biospecialty Corp.) at a ratio of 10:1 (T-cells:MoDCs) in a mixed lymphocyte reaction (MLR). The cells were treated with control IgG (Isotype) or anti-PD-1 antibody (nivolumab or ABBV-181 along with either dimethyl sulfoxide (DMSO) or BCL-2 inhibitors venetoclax (Compound (I)) or Compounds (II) or (III). Antibodies were added at 10 μg/mL and the compound concentrations of venetoclax were as indicated in FIG. 11. The MLR was cultured for 5 days, after which the cells were analyzed by flow cytometry using an LSRFortessa™ X-20 instrument (BD Biosciences) to determine cell number and functional cytokine (IFNγ) responses.

[2] = system: EMT6 tumors; test: EMT6 mouse mammary carcinoma syngeneic model; format: in vivo; conditions: for complete responses (CR): EMT6, groups of 10 mice
Description: All experiments were conducted in compliance with the National Institutes of Health Guide for Care and Use of Laboratory Animals guidelines in a facility accredited by the Association for the Assessment and Accreditation of Laboratory Animal Care (AAALAC). BALB/c, C57BL/6, CB6F1 (C57BL/6 bred with BALB/c) and SCID mice were obtained from Charles River (Wilmington, Mass.). SCID mice have severe combined immune deficiency (SCID) and are characterized by an absence of functional T- and B-cells.
EMT6, mouse mammary carcinoma and CT26, mouse colon carcinoma, cell lines were obtained from ATCC (Manassas, Va.). MC38, mouse colon carcinoma cell line was obtained from National Cancer Institute (NCI).
Compound (I),venetoclax, was formulated in 10% ethanol+30% PEG 400+60% Phosal® 50PG. Venetoclax was administered orally once a day for 14 days at 50 mg/kg/day.
1×10^5 CT26, EMT6 or MC38 cells were subcutaneously injected with Matrigel into the flanks of BALB/c, CB6F1 or C57BL/6 mice, respectively. Seven days later, mice were randomized to treatment groups of vehicle, venetoclax, anti-PD-1/PD-L1 or the combination of venetoclax and anti-PD-1/PD-L1. Tumor volume was determined via measurements of the length (L) and width (W) of the tumor with electronic calipers and the volume was calculated according to the following equation: V=L×W2/2 using Study Director Version 2.1.11 (Studylog Systems Inc., South San Francisco). Complete response (CR) was defined as reduction in tumor volume to ≤25 mm^3 over at least 3 successive measurements.

Compound | CD3+ T cell numbers [1] | production of IFNγ (secreted) [1] | proportion of CD3+ T-cells that produce IFNγ [1] | other results
Cn1ccc2cc(N(C(=O)c3cc(-c4cc5c(cc4C(=O)N4Cc6ccccc6C[C@H]4CN4CCOCC4)OCO5)n4c3CCCC4)c3ccc(O)cc3)ccc21 [Compound (II)] | declined comparably | not antagonized | increase | –
nivolumab: anti-PD-1 antibody, heavy chain SEQ ID NO: 9, light chain SEQ ID NO: 10 | – | – | – | proportion of CD4+ T-cells that produce IFNγ ([1]; MLR 5 days, with isotype control or anti-PD-1 antibody): increased; number of CD4+ T-cells ([1]; MLR cultured 5 days, antibodies at 10 μg/mL): increased
anti hu PD-L1 YW243.55.S70 [mu IgG2 a/k]: mouse anti-PD-L1 antibody, heavy chain SEQ ID NO: 5, light chain SEQ ID NO: 6 | – | – | – | complete responses (CR) [2]: 3; complete responses (CR) ([2]; listed as anti-PD-L1 antibody): 3/10; tumor growth inhibition (TGI) ([2]; EMT6 in CB6F1 mice, venetoclax 50 mg/kg/day orally 14 days, antibody 10 mg/kg IP every 4 days, 3 times, day 25): 89%
O=C(c1cc(-c2cc3c(cc2C(=O)N2Cc4ccccc4C[C@H]2CN2CCOCC2)OCO3)n2c1CCCC2)N(c1ccccc1)c1ccc(O)cc1 [Compound (III)] | declined comparably | not antagonized | increase | –
